{"source": "patent US10792483B2", "about": "“Tumor vaccination” (XAX KFT., priority 2012, dated 2020)", "key": {"[1]": {"system": "melanoma with lung metastases", "assay": "Case report, dog treated with oncothermia and low dose Carboplatine (Example 11)", "assay_type": "in vivo, Cocker spaniel", "conditions": "low dose Carboplatine 2 times (100 mg/m^2) + oncothermia 10 times in 2 weeks on the chest", "protocol": "Case No.:11461, Cocker spaniel, 8 years, castrated male,\nDiagnosis: melanoma with lung metastases. The primary tumor was situated on the right hind leg and was removed surgically. 5 months later metastases in the lung occurred, at that time we started the treatment.\nOncothermia (10 times in a 2 weeks period)\nLow dose Carboplatine 2 times, (100 mg/m^2)\nThe site of the OTM treatment was on the chest, exactly at the line of the heart."}, "[2]": {"system": "non small cells lung cancer", "assay": "Case report, patient treated with radiotherapy, oncothermia and GM-CSF (Example 13)", "assay_type": "in vivo, human", "conditions": "for Response of far-distant metastases (abscopal effect, PET scan): GM-CSF (Leukine) subcutaneously with oncothermia (and radiotherapy) of the primary tumor only; for Response of the primary (treated) tumor: GM-CSF (Leukine) with oncothermia (and radiotherapy)", "from_the_text": "A patient was diagnosed with unclassifiable non small cells lung cancer. The classification of the tumor at first diagnosis was cT2N2M0, stage IIIB. Despite of the advanced case the patient refused any treatment. Five months later, they visited outpatient department of complementary and alternative medicine with complaints of hemoptysis and dyspnea on exertion gradually worsened 4 weeks before. They were referred to medical oncology department and admitted for re-evaluation.\nThe patient had no co-morbidities and no medical history. However, they still refused chemotherapy and together with their family members requested other possible treatment options.\nIn these circumstances we made radiotherapy in combination with oncothermia and GM-CSF expecting to induce abscopal effect. Local field radiation therapy to lung mass was delivered at a dose of […] in 28 daily fractions for 5-6 treatments in a week. It was followed by oncothermia after radiation 3 times a week. After 2 weeks of oncothermia treatment, GM-CSF (250 microgram, Leukine®, USA) was administered subcutaneously once a day for 10 days. GM-CSF in dose 125 μg/m^2 was given subcutaneously for 14 days after one week of radiotherapy. The result supported that using GM-CSF was feasible and its effect enhanced the immune therapy."}, "[3]": {"system": "Melanoma", "conditions": "phase III, 185 patients; cited from earlier work"}}, "note": "“Also recorded” adds a separate entry of the source.", "data": [{"compound": "N.N.O=C([O-])C1(C(=O)[O-])CCC1.[Pt+2]", "note": "[Carboplatine]", "values": [{"measurement": "Tumor regression (CT image series)", "setting": "[1]", "result": "Significant tumor regression was observed not only at the site of the treatment, but outside of the directly OTM treated area"}]}, {"compound": "Leukine®: sargramostim; recombinant granulocyte macrophage colony-stimulating factor", "values": [{"measurement": "Response of far-distant metastases (abscopal effect, PET scan)", "setting": "[2]", "result": "beneficial effect also on the far-distances metastases, which disappear; also recorded: the metastases disappeared"}, {"measurement": "Response of far-distant metastases (abscopal effect, PET scan)", "setting": "[2]; listed as GM-CSF", "result": "nearly complete remission in multiple metastatic lymph nodes; also recorded: successful abscopal effect"}, {"measurement": "Response of the primary (treated) tumor", "setting": "[2]", "result": "started to shrink"}, {"measurement": "Response of the primary (treated) tumor", "setting": "[2]; listed as GM-CSF", "result": "shrinking"}, {"measurement": "Adverse effects", "setting": "[2]; radiotherapy + oncothermia + GM-CSF, end of treatment period", "result": "no severe adverse effects except grade 1 fatigue"}]}, {"compound": "gp100:209-217(210M): listed under vaccines with peptides (IMDQVPFSV; UniProt P40967 209-217, looked up, variant T210M)", "values": [{"measurement": "RR and PES", "setting": "[3]", "result": "Significant improve-"}]}]}
